This is an account of results in patent US20210053957A1, “HERBICIDAL COMPOUNDS” (SYNGENTA PARTICIPATIONS AG, priority 2018, published 2021).

Assay in all cases: Post-emergence efficacy, glasshouse spray test
What all share (assay type): in vivo

Experiment [1] relates to Amaranthus palmeri (AMAPA). The following applies: Amaranthus palmeri, post-emergence, 312 h; Application Rate 500 g/Ha; evaluated after 13 days; read-out: Control of weed species after post-emergence application, AMAPA (100=total damage to plant; 0=no damage to plant). The procedure, abridged: (§1)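 Plants grown 14 days in glasshouse (24/16 °C day/night, 14 h light, 65% humidity), then sprayed post-emergence with compound formulated in acetone/IF50 emulsifier, diluted in 0.25% or 1% Empicol ESC70 plus 1% ammonium sulphate. Damage scored after 13 days, 0 (none) to 100 (total).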

The subject of experiment [2] is Euphorbia heterophylla (EPHHL). The following applies: Euphorbia heterophylla, post-emergence, 312 h; Application Rate 500 g/Ha; evaluated after 13 days; read-out: Control of weed species after post-emergence application, EPHHL (100=total damage to plant; 0=no damage to plant). The essentials: as §1
Experiment [3] has as its system Ipomoea hederacea (IPOHE). Conditions: Ipomoea hederacea, post-emergence, 312 h; Application Rate 500 g/Ha; evaluated after 13 days; read-out: Control of weed species after post-emergence application, IPOHE (100=total damage to plant; 0=no damage to plant). The essentials:
as §1

Another experiment relates to Lolium perenne (LOLPE). Conditions: Lolium perenne, post-emergence, 312 h; Application Rate 500 g/Ha; evaluated after 13 days; read-out: Control of weed species after post-emergence application, LOLPE (100=total damage to plant; 0=no damage to plant). The essentials: as §1
In experiment [4] the test system is Echinochloa crus-galli (ECHCG). The following applies: Echinochloa crus-galli, post-emergence, 312 h; Application Rate 500 g/Ha; evaluated after 13 days; read-out: Control of weed species after post-emergence application, ECHCG (100=total damage to plant; 0=no damage to plant). The essentials: as §1
In a further experiment the test system is Eleusine indica (ELEIN). The following applies: Eleusine indica, post-emergence, 312 h; Application Rate 500 g/Ha; evaluated after 13 days; read-out: Control of weed species after post-emergence application, ELEIN (100=total damage to plant; 0=no damage to plant). The procedure, abridged:
as §1

The subject of the next experiment is Setaia fabei (SETFA). The following applies: Setaria faberi, post-emergence, 312 h; Application Rate 500 g/Ha; evaluated after 13 days; read-out: Control of weed species after post-emergence application, SETFA (100=total damage to plant; 0=no damage to plant). The essentials: as §1
The subject of experiment [5] is Chenopodium album (CHEAL). The following applies: Chenopodium album, post-emergence, 312 h; Application Rate 500 g/Ha; evaluated after 13 days; read-out: Control of weed species after post-emergence application, CHEAL (100=total damage to plant; 0=no damage to plant). The procedure, abridged:
as §1

Experiment [6] relates to Digitaria sanguinalis (DIGSA). The following applies: Digitaria sanguinalis, post-emergence, 312 h; Application Rate 500 g/Ha; evaluated after 13 days; read-out: Control of weed species after post-emergence application, DIGSA (100=total damage to plant; 0=no damage to plant). The essentials: as §1

In the case of `O=C(O)CC[n+]1ccc(-c2ccoc2)cn1` [Compound A43], the pest or weed control at 500 g/ha turned out to be 100% in [1]; 80% in [2]; 20% in experiment [3]; 0% in the experiment on Lolium perenne (LOLPE); 10% in [4]; 10% in the experiment on Eleusine indica (ELEIN). Also, the figures for the pest or weed control at 500 g/ha (in the experiment with Setaia fabei (SETFA); in experiment [5]; in experiment [6]) were 10%, 90% and 20%, respectively.
In the case of `CNc1nnc(-c2cc[n+](CCS(=O)(=O)[O-])nc2)s1` [Compound A45], the pest or weed control at 500 g/ha in experiment [1] worked out at 100%; in experiment [2], 90%; in experiment [3], 20%; in the experiment with Lolium perenne (LOLPE), 70%; in experiment [4], 40%; in the experiment with Eleusine indica (ELEIN), 70%. Also, the pest or weed control at 500 g/ha came out at 70% in the experiment with Setaia fabei (SETFA), 80% in [5] and 50% in experiment [6].
In the case of `Nc1nnc(-c2cc[n+](CCC(=O)O)nc2)s1` [Compound A47], the pest or weed control at 500 g/ha in experiment [1] turned out to be 100%; in [2], 100%; in experiment [3], 30%; in the experiment with Lolium perenne (LOLPE), 100%; in experiment [4], 90%; in the experiment with Eleusine indica (ELEIN), 100%. Further, the pest or weed control at 500 g/ha in the experiment on Setaia fabei (SETFA) came out at 90%; in experiment [5] it was 100%; in experiment [6] it was 90%.
Consider `Cn1nncc1-c1cc[n+](CCC(=O)O)nc1` [Compound A48], for which the pest or weed control at 500 g/ha in [1] was 100%; in [2] it was 90%; in experiment [3] it was 90%; with Lolium perenne (LOLPE) it was 40%; in experiment [4] it was 70%; with Eleusine indica (ELEIN), 70%. In addition, the pest or weed control at 500 g/ha in the experiment with Setaia fabei (SETFA) was found to be 90%; in [5], 90%; in experiment [6] it was 100%.
As to `Cn1nncc1-c1cc[n+](CCS(=O)(=O)[O-])nc1` [Compound A49], the pest or weed control at 500 g/ha in experiment [1] came out at 100%; in [2], 90%; in [3], 70%; in the experiment with Lolium perenne (LOLPE), 40%; in experiment [4] it was 60%; in the experiment with Eleusine indica (ELEIN), 60%. Further, the pest or weed control at 500 g/ha stood at 60% with Setaia fabei (SETFA), 100% in experiment [5] and 70% in experiment [6].
`Cn1cnnc1-c1cc[n+](CCS(=O)(=O)[O-])nc1` [Compound A50]: the pest or weed control at 500 g/ha in experiment [1] amounted to 100%; in experiment [2], 100%; in experiment [3] it was 70%; in the experiment on Lolium perenne (LOLPE) it was 80%; in [4], 100%; with Eleusine indica (ELEIN), 70%. Besides, the pest or weed control at 500 g/ha (with Setaia fabei (SETFA); in [5]; in experiment [6]) was 100% in each case.
Take `Cn1cnc(-c2cc[n+](CCC(=O)O)nc2)n1` [Compound A51]: the pest or weed control at 500 g/ha amounted to 100% in experiment [1]; 90% in [2]; 30% in [3]; 60% in the experiment with Lolium perenne (LOLPE); 90% in experiment [4]; 70% with Eleusine indica (ELEIN). In addition, the pest or weed control at 500 g/ha in the experiment on Setaia fabei (SETFA) was determined as 90%; in experiment [5], 100%; in experiment [6], 90%.
As to `O=C(O)CC[n+]1ccc(-c2nc(C(F)(F)F)co2)cn1` [Compound A56], the pest or weed control at 500 g/ha in experiment [1] was 100%; in experiment [2], 90%; in [3], 30%; in the experiment on Lolium perenne (LOLPE), 50%; in experiment [4], 90%; in the experiment on Eleusine indica (ELEIN), 80%. Moreover, the pest or weed control at 500 g/ha was determined as 80% in the experiment on Setaia fabei (SETFA), 80% in [5] and 70% in experiment [6].
`O=S(=O)([O-])CC[n+]1ccc(-c2nc(C(F)(F)F)co2)cn1` [Compound A57]: the pest or weed control at 500 g/ha is 100% in experiment [1]; 90% in experiment [2]; 60% in experiment [3]; 50% with Lolium perenne (LOLPE); 80% in experiment [4]; 60% in the experiment on Eleusine indica (ELEIN). Also, the values for the pest or weed control at 500 g/ha (in the experiment with Setaia fabei (SETFA); in experiment [5]; in experiment [6]) were 60%, 100% and 70%, respectively.
Consider `O=S(=O)([O-])CCC[n+]1ccc(-c2ccon2)cn1` [Compound A59], for which the pest or weed control at 500 g/ha in experiment [1] is 90%; in experiment [2], 100%; in experiment [3], 80%; in the experiment with Lolium perenne (LOLPE), 70%; in [4], 70%; with Eleusine indica (ELEIN), 90%. The figures for the pest or weed control at 500 g/ha (in the experiment with Setaia fabei (SETFA); in experiment [5]; in experiment [6]) were 80%, 90% and 70%, respectively.
As for `O=S(=O)([O-])CC[n+]1ccc(-c2cnsc2)cn1` [Compound A60], the pest or weed control at 500 g/ha in experiment [1] stood at 90%; in [2], 50%; in experiment [3], 10%; with Lolium perenne (LOLPE) it was 30%; in experiment [4], 40%; in the experiment with Eleusine indica (ELEIN), 70%. Moreover, the pest or weed control at 500 g/ha in the experiment with Setaia fabei (SETFA) turned out to be 50%; in experiment [5], 90%; in experiment [6] it was 50%.
For `O=S(=O)([O-])CC[n+]1ccc(-c2cscn2)cn1` [Compound A61], the pest or weed control at 500 g/ha in experiment [1] was 100%; in [2] it was 40%; in experiment [3], 20%; with Lolium perenne (LOLPE), 30%; in experiment [4], 50%; in the experiment with Eleusine indica (ELEIN), 60%. Also, the pest or weed control at 500 g/ha is 70% in the experiment on Setaia fabei (SETFA), 70% in [5] and 80% in experiment [6].
As for `O=C(O)CC[n+]1ccc(-c2cnsc2)cn1` [Compound A62], the pest or weed control at 500 g/ha in [1] is 0%; in experiment [2] it was 40%; in experiment [3], 20%; in the experiment with Lolium perenne (LOLPE) it was 0%; in experiment [4] it was 0%; with Eleusine indica (ELEIN), 0%. The pest or weed control at 500 g/ha worked out at 0% with Setaia fabei (SETFA), 20% in experiment [5] and 10% in experiment [6].
Regarding `O=C(O)CC[n+]1ccc(-c2ccsc2)cn1` [Compound A63], the pest or weed control at 500 g/ha worked out at 0% in [1]; 40% in experiment [2]; 20% in experiment [3]; 10% in the experiment on Lolium perenne (LOLPE); 20% in [4]; 20% with Eleusine indica (ELEIN). Besides, the results for the pest or weed control at 500 g/ha (in the experiment with Setaia fabei (SETFA); in experiment [5]; in experiment [6]) were 30%, 30% and 20%, respectively.
For the molecule `O=S(=O)([O-])CC[n+]1ccc(-c2ccon2)cn1` [Compound A64], the pest or weed control at 500 g/ha in experiment [1] was found to be 100%; in experiment [2], 100%; in experiment [3] it was 90%; in the experiment on Lolium perenne (LOLPE) it was 40%; in experiment [4] it was 80%; in the experiment with Eleusine indica (ELEIN) it was 30%. Moreover, the figures for the pest or weed control at 500 g/ha (in the experiment on Setaia fabei (SETFA); in [5]; in [6]) were 80%, 90% and 90%, respectively.
